Counter-ions that a name gives are not always drawn.
Key:
[1] = Plasma stability, cynomolgus monkey plasma (K2-EDTA); format: in vitro ADME; details: for % Remaining at T120 / T1/2: 2 μM, anti-coagulant K2-EDTA; for % Remaining at T120: 120 min; for half-life at 2 μM: plasma (K2EDTA), pH 7.4, anti-coagulant K2-EDTA
Experimental: Individual stock solutions of propantheline and lovastatin were prepared at 10 mM in DMSO and were further diluted to 2 mM with DMSO.
Frozen matrices (Balb/c mouse, Wistar Han rat, Beagle dog, and human plasma containing K2EDTA as anti-coagulant) were thawed and centrifuged at 3100 rpm for 10 minutes at 4° C. to remove particulates. The lipid layer was then removed, and the supernatant was transferred to a new tube without disturbing the pellet. After the matrices were incubated at 37° C. for at least 10 minutes, the pH of each matrix was adjusted to pH 7.4, using 10% phosphoric acid or 1N sodium hydroxide as necessary. Test and control article stock solutions were spiked (2 μL) into matrix (1.998 mL) and mixed to final assay concentration of […]. Duplicate 30-μL aliquots of spiked plasma were transferred to matrix tubes in 96-well plate immediately after spiking for timepoints of 0, 30, 60, 120, 240, and 360 minutes. These tubes were then incubated at 37° C. with shaking and at each timepoint, the corresponding tubes containing samples were quenched with 180 μL of cold acetonitrile containing the internal standards. The quenched samples were vortex-mixed briefly and stored refrigerated. After the final time point (360 minutes), the plates with all quenched samples were vortex-mixed for 10 minutes and then centrifuged at 3100 rpm for 10 minutes at 4° C. to sediment the precipitated protein. The supernatant (50 μL) was transferred to a clean 96-well plate and diluted with 100 μL of water. The plates were stored refrigerated until analysis.
Data Analysis: Peak area ratios for IS-normalized test article and control article counts were used to calculate the percent remaining relative to the time zero (T0) value. As appropriate, results were plotted and further analyzed to calculate half-life (T1/2) values.
Mean peak area ratios were used to calculate the % remaining relative to the T0 value:
In this study, human, cynomolgus monkey, beagle dog, wistar hannover rat, and balb/c plasma stability was determined. Table 28 describes the results of the human plasma stability at 2 μM concentration and anti-coagulant K2-EDTA from 10 to 120 min. Table 29 describes the results of the cynomolgus monkey plasma stability at 2 μM concentration and anti-coagulant K2-EDTA. Table 30 describes the results of the beagle dog plasma stability at 2 μM concentration and anti-coagulant K2-EDTA. Table 31 describes the results of the wistar hannover rat plasma stability at 2 μM concentration and anti-coagulant K2-EDTA. Table 32 describes the results of the balb/c plasma stability at 2 μM concentration and anti-coagulant K2-EDTA.

beagle dog hepatocytes = experiment: Hepatocyte stability, beagle dog; format: in vitro ADME; details: 2 μM, 0.5 million cells/ml
Experimental: (§1) In this study, human, cynomolgus monkey, beagle dog, wistar hannover rat, and balb/c mouse hepatocyle stability was determined.

[2] = test system: wistar hannover rat hepatocytes; experiment: Hepatocyte stability, wistar hannover rat; format: in vitro ADME; details: 2 μM, 0.5 million cells/ml
Experimental: as §1

[3] = test system: phospho-ERK in A549 (KRAS G12S) cells; experiment: Cell-based pERK (pERK:tERK) in A549 cells; design: A549-pERK 10 uM, 2 h: unit not given here; details: for activity at 0.01 µM: A549, 2 h, read-out: A549-pERK (10 nM, 2 h); for pERK:tERK (10 nM 2 h A549): Phospho-ERK Screen in A549 (KRAS G12S), head 10 nM 2 h, title 10 μM for 2 hours; for A549-pERK (10 nM, 2 h): phospho- to total protein ratio normalized to DMSO control (Table 9); for IC50: A549, 12-point dose
Summary of the method: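 Readout was pERK versus tERK by Western blot with IRDye-labelled secondary antibodies, imaged and quantified on a LI-COR Odyssey. Lysates were loaded at 1 mg/mL protein after Bradford estimation.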

CNS(=O)(=O)Nc1cccc(Cc2c(CN3CCNCC3)c3ccc(OC(=O)N(C)C)cc3oc2=O)c1Cl [Compound 246, 3-(2-chloro-3-((N-methylsulfamoyl)amino)benzyl)-2-oxo-4-(piperazin-1-ylmethyl)-2H-chromen-7-yl dimethylcarbamate hydrochloride]
% Remaining at T120 [1]: 104.5% | half-life at 2 μM [1]: > 2 h | % Remaining At T120 (beagle dog hepatocytes): 79.6% | % Remaining At T120 [2]: 63.0% | activity at 0.01 µM ([3]; Homo sapiens): 19% | pERK:tERK (10 nM 2 h A549) [3]: 19

CCS(=O)(=O)Nc1cccc(Cc2c(CN(C)C)c3ccc(OC(=O)N(C)C)cc3oc2=O)c1F [Compound 120]
T1/2 [1]: >2 h | % Remaining at T120 [1]: 107.3% | % Remaining At T120 (beagle dog hepatocytes): 49.5% | CLint (L/hr/kg) (beagle dog hepatocytes): 3.78 L/h/kg | CLint (mL/min/kg) (beagle dog hepatocytes): 63.0 mL/min/kg | T1/2 (beagle dog hepatocytes): 1.97 h | % Remaining At T120 [2]: 32.0% | CLint (L/hr/kg) [2]: 3.07 L/h/kg | CLint (mL/min/kg) [2]: 51.2 mL/min/kg | T1/2 [2]: 1.22 h | A549-pERK (10 nM, 2 h) ([3]; 2 h): 77.2

CNS(=O)(=O)Nc1cccc(Cc2c(CN3CCNCC3)c3cc(F)c(OC(=O)N(C)C)cc3oc2=O)c1F [Compound 134]
T1/2 [1]: 15.8 h | % Remaining at T120 [1]: 93.0% | % Remaining At T120 (beagle dog hepatocytes): 74.7% | CLint (L/hr/kg) (beagle dog hepatocytes): 1.57 L/h/kg | CLint (mL/min/kg) (beagle dog hepatocytes): 26.1 mL/min/kg | T1/2 (beagle dog hepatocytes): 4.75 h | % Remaining At T120 [2]: 59.8% | CLint (L/hr/kg) [2]: 1.39 L/h/kg | CLint (mL/min/kg) [2]: 23.1 mL/min/kg | T1/2 [2]: 2.7 h | A549-pERK (10 nM, 2 h) ([3]; 2 h): 33.1

CCCS(=O)(=O)Nc1cccc(Cc2c(CN3CCNCC3)c3cc(Cl)c(OC(=O)N(C)C)cc3oc2=O)c1F [Compound 167]
T1/2 [1]: >2 h | % Remaining at T120 [1]: 117.3% | % Remaining At T120 (beagle dog hepatocytes): 17.7% | CLint (L/hr/kg) (beagle dog hepatocytes): 9.31 L/h/kg | CLint (mL/min/kg) (beagle dog hepatocytes): 155 mL/min/kg | T1/2 (beagle dog hepatocytes): 0.8 h | % Remaining At T120 [2]: 31.0% | CLint (L/hr/kg) [2]: 3.16 L/h/kg | CLint (mL/min/kg) [2]: 52.6 mL/min/kg | T1/2 [2]: 1.18 h | pERK:tERK (10 nM 2 h A549) [3]: 27 (n = 2)

CCS(=O)(=O)Nc1cccc(Cc2c(CN3CCNCC3)c3cc(Cl)c(OC(=O)N(C)C)cc3oc2=O)c1Cl [Compound 257, 6-chloro-3-(2-chloro-3-(ethylsulfonamido)benzyl)-2-oxo-4-(piperazin-1-ylmethyl)-2H-chromen-7-yl dimethylcarbamate hydrochloride]
% Remaining at T120 [1]: 98.0% | half-life at 2 μM [1]: 20.1 h | % Remaining At T120 (beagle dog hepatocytes): 47.8% | % Remaining At T120 [2]: 45.4% | pERK:tERK (10 nM 2 h A549) [3]: 17

CNS(=O)(=O)Nc1nccc(Cc2c(C)c3ccc(Oc4ncccn4)cc3oc2=O)c1F [Reference-2, reference compound]
IC50 ([3]; Homo sapiens): 7.2 nM

CNS(=O)(=O)Nc1cccc(Cc2c(CN(C)C)c3ccc(OC(=O)N(C)C)cc3oc2=O)c1Cl [Compound 274, 3-(2-chloro-3-((N-methylsulfamoyl)amino)benzyl)-4-((dimethylamino)methyl)-2-oxo-2H-chromen-7-yl dimethylcarbamate]
% Remaining at T120 [1]: 104.5% | half-life at 2 μM [1]: > 2 h | % Remaining At T120 (beagle dog hepatocytes): 51.9% | % Remaining At T120 [2]: 34.9%

CCN(C)Cc1c(Cc2cccc(NS(=O)(=O)NC)c2F)c(=O)oc2cc(OC(=O)N(C)C)c(F)cc12 [Compound 238]
% Remaining at T120 [1]: 101.1% | half-life at 2 μM [1]: > 2 h | % Remaining At T120 (beagle dog hepatocytes): 31.1% | % Remaining At T120 [2]: 23.0% | activity at 0.01 µM ([3]; Homo sapiens): 68.4%

CCN(C)Cc1c(Cc2cccc(NS(=O)(=O)NC)c2Cl)c(=O)oc2cc(OC(=O)N(C)C)ccc12 [Compound 245, 3-(2-chloro-3-((N-methylsulfamoyl)amino)benzyl)-4-((ethyl(methyl)amino)methyl)-2-oxo-2H-chromen-7-yl dimethylcarbamate]
% Remaining at T120 [1]: 96.5% | half-life at 2 μM [1]: 23 h | % Remaining At T120 (beagle dog hepatocytes): 23.4% | % Remaining At T120 [2]: 15.7% | activity at 0.01 µM ([3]; Homo sapiens): 68.8% | pERK:tERK (10 nM 2 h A549) [3]: 69

CNS(=O)(=O)Nc1cccc(Cc2c(CN3CCNCC3)c3cc(Cl)c(OC(=O)N(C)C)cc3oc2=O)c1Cl [Compound 256, 6-chloro-3-(2-chloro-3-((N-methylsulfamoyl)amino)benzyl)-2-oxo-4-(piperazin-1-ylmethyl)-2H-chromen-7-yl dimethylcarbamate hydrochloride]
% Remaining at T120 [1]: 95.0% | half-life at 2 μM [1]: 28.5 h | % Remaining At T120 (beagle dog hepatocytes): 62.8% | % Remaining At T120 [2]: 45.7% | pERK:tERK (10 nM 2 h A549) [3]: 14

CNS(=O)(=O)Nc1cccc(Cc2c(CN(C)C)c3cc(F)c(OC(=O)N(C)C)cc3oc2=O)c1F [Compound 25]
T1/2 [1]: >2 h | % Remaining at T120 [1]: 107.3% | % Remaining At T120 (beagle dog hepatocytes): 62.7% | CLint (L/hr/kg) (beagle dog hepatocytes): 2.51 L/h/kg | CLint (mL/min/kg) (beagle dog hepatocytes): 41.9 mL/min/kg | T1/2 (beagle dog hepatocytes): 2.97 h | % Remaining At T120 [2]: 60.0% | CLint (L/hr/kg) [2]: 1.38 L/h/kg | CLint (mL/min/kg) [2]: 23.0 mL/min/kg | T1/2 [2]: 2.72 h | A549-pERK (10 nM, 2 h) ([3]; 2 h): 66.2 | pERK:tERK (10 nM 2 h A549) [3]: 66 (n = 2)

CNS(=O)(=O)Nc1cccc(Cc2c(CN(C)C)c3ccc(OC(=O)N(C)C)cc3oc2=O)c1F [Compound 9]
T1/2 [1]: >2 h | % Remaining at T120 [1]: 110.4% | % Remaining At T120 (beagle dog hepatocytes): 66.2% | CLint (L/hr/kg) (beagle dog hepatocytes): 2.22 L/h/kg | CLint (mL/min/kg) (beagle dog hepatocytes): 36.9 mL/min/kg | T1/2 (beagle dog hepatocytes): 3.37 h | % Remaining At T120 [2]: 34.9% | CLint (L/hr/kg) [2]: 2.84 L/h/kg | CLint (mL/min/kg) [2]: 47.3 mL/min/kg | T1/2 [2]: 1.32 h | A549-pERK (10 nM, 2 h) ([3]; 2 h): 63.0 | A549 pERK:tERK ratio [10 nM; 2 hr] [3]: 0.62 | A549-pERK 10 uM, 2 h ([3]; 10 uM, 2 h, phospho- to total protein ratio normalized to DMSO control): 1.205 (mean, n = 2) | IC50 [3]: 19.8 nM | pERK:tERK (10 nM 2 h A549) [3]: 65 (n = 27)

CNS(=O)(=O)Nc1nccc(Cc2c(CN(C)C)c3ccc(OC(=O)N(C)C)cc3oc2=O)c1F [Compound 124]
T1/2 [1]: 21.32 h | % Remaining at T120 [1]: 95.9% | % Remaining At T120 (beagle dog hepatocytes): 34.4% | CLint (L/hr/kg) (beagle dog hepatocytes): 5.73 L/h/kg | CLint (mL/min/kg) (beagle dog hepatocytes): 95.6 mL/min/kg | T1/2 (beagle dog hepatocytes): 1.3 h | % Remaining At T120 [2]: 32.2% | CLint (L/hr/kg) [2]: 3.06 L/h/kg | CLint (mL/min/kg) [2]: 51.0 mL/min/kg | T1/2 [2]: 1.22 h | A549-pERK (10 nM, 2 h) ([3]; 2 h): 94.6

Cn1cnc2c(F)c(Nc3ccc(Br)cc3Cl)c(C(=O)NOCCO)cc21 [Reference-1, Selumetinib]
A549 pERK:tERK ratio [10 nM; 2 hr] [3]: 0.56 | IC50 ([3]; Homo sapiens): 7.2 nM

From patent US20250179057A1, “MEK IMMUNE ONCOLOGY INHIBITORS AND THERAPEUTIC USES THEREOF” (Immuneering Corporation, priority 2022, published 2025)
